Laboratory results as given in article PMC12423301, “Astrocytic monoamine oxidase B (MAOB)–gamma-aminobutyric acid (GABA) axis as a molecular brake on repair following spinal cord injury” (Signal Transduction and Targeted Therapy, 2025).
“And” between values parts separate entries of the source, which are not always exact repeats. Equal entries are not always repeated. Where two headings read alike, the source gives them in different places.

Key:
[1] = Sprague-Dawley, rat, in vivo
[2] = Phase 1 clinical trial: pharmacokinetics
Method: All subjects provided consent for this phase 1 clinical trial study. The study comprised 11 cohorts: single ascending dose (SAD) and multiple ascending dose (MAD) studies. […] Cohort 3 employed a two-period crossover design with a 14-day washout.
The parameters related to plasma concentrations were calculated via non-compartmental analysis using the linear-up log-down method in Phoenix WinNonlin software version 8.3 (Certara, US). The parameters related to urine concentrations were calculated using the linear trapezoidal linear interpolation method.
In the SAD study, plasma samples were collected using sodium K2-EDTA tubes at pre-dose, 0.33, 0.75, 1, 2, 3, 4, 6, 8, 12, 24, 48, 72, 96, 120, and 144 h after dosing. Urine samples were collected up to 72 h post-dose. In the MAD study, plasma samples were collected at pre-dose, 0.33, 0.75, 1, 2, 3, 4, 6, 8, 12 and 24 h after the administration of the first dose, and at pre-dose of the third to seventh doses. After the administration of the seventh dose, plasma samples were collected at the same time points as after the first dose, with additional sampling points at 48, 72, 96, 120, and 144 h post-dose. Urine samples were collected for 24 h after the administration of the first dose and for 72 h after the seventh dose.
For the clinical trial, dose proportionality of the PK parameters (Cmax, Cmax,ss, AUClast, and AUCτ) was assessed using power model using the following equation: log (PK parameter) = β0 + β1 log (dose). The regression slope (β1) and the intercept (β0) were estimated with 95% confidence interval (CI) using PROC REG in SAS version 9.4. The PK parameters were considered dose-proportional if the 95% CI of the β1 included 1. […] Using a linear mixed effect model, the logarithmized PK parameters were analyzed with the high-gat meal as a fixed effect and inter-individual differences as a random effect. The GMR and its 90% CI of the PK parameters of the high-fat meal were calculated relative to those in the fasting state. […] In elderly subjects, the same analyses were performed and compared to those of healthy younger adults.

[3] = Preclinical pharmacokinetics in monkeys; format: in vivo, Cynomolgus monkey; conditions: for AUC(0-t) / Vd/F / Tmax / AUC(0-inf) / CL/F / half-life: cynomolgus monkey, in vivo
Method: In a pharmacokinetic study, plasma PK parameters were measured after a single oral administration of […]
dose group and at 4 to 6 hours after administration in the 30 mg/kg dose group. In the elimination phase, the […]
Systemic exposure (AUClast) to the test substance was 30587 and 80770 ng*hr/mL, respectively. […]

Structure (SMILES): CS(=O)(=O)O.C[C@H](NCc1ccc(-c2ccc(C(F)(F)F)cc2)cc1)C(N)=O [KDS2010, (S)-2-(((4’-Trifluoromethylbiphenyl-4-yl)methyl)amino)propanamide methane-sulfonate]
- approximate lethal dose ([1]; iv): ≥ 100 mg/kg
- approximate lethal dose ([1]; po): ≥ 1400 mg/kg
- increase of systemic exposure (AUCinf and AUCτ,ss) with dose ([2]; 60 mg to 480 mg): dose-proportional
- higher exposure in elderly subjects ([2]; 120 mg for 7 days, elderly vs young): approximately 25%
- pharmacokinetic profiles, Korean vs Caucasian subjects ([2]; 60, 120, 240, 480 mg at steady state): similar
- unchanged drug excreted in the urine ([2]; healthy humans): Less than 1%
- AUC(0-inf) ([2]; human, in vivo, 120 mg): 13900 ng·h/mL
- effect of a high-fat meal on systemic exposure (Cmax and AUCinf) ([2]; human, in vivo, 120 mg): did not affect
- half-life ([2]; human, in vivo, po): 44.2 h
- time to maximum plasma concentration (Cmax) ([2]; human, in vivo, po): 3 h
- AUC(0-t) [3]: ~13000 ng·h/mL
- Vd/F ([3]; iv, 5 mg/kg): 3.714 ± 0.609 L/kg
- increase in the AUC, 30 mg/kg vs 10 mg/kg ([3]; cynomolgus monkeys): 5 fold and ~ 4.6 fold
- increase rate of Cmax vs dose ([3]; male monkeys, 10 and 30 mg/kg): slightly lower
- Tmax ([3]; male): 2 to 6 h
- AUC(0-inf) ([3]; male, po, 10 mg/kg): 43600 ng·h/mL
- CL/F ([3]; male, po, 10 mg/kg): 3.8 mL/min/kg
- Vd/F ([3]; male, po, 10 mg/kg): 4.49 ± 0.61 L/kg
- half-life ([3]; male, po, 10 mg/kg, t1/2): 13.7 ± 0.48 h
- AUC(0-inf) ([3]; male, po, 30 mg/kg): 202000 ± 76800 ng·h/mL
- CL/F ([3]; male, po, 30 mg/kg): 2.58 mL/min/kg
- Vd/F ([3]; male, po, 30 mg/kg): 6.27 ± 1.67 L/kg
- half-life ([3]; male, po, 30 mg/kg, t1/2): 16.9 h
- AUC(0-inf) ([3]; male, cynomolgus, po, 10 mg/kg): 43600 ng·h/mL
- AUC(0-t) ([3]; male, cynomolgus, po, 10 mg/kg): 30600 ng·h/mL
- Tmax ([3]; male, cynomolgus, po, 10 mg/kg): 2 h
- half-life ([3]; male, cynomolgus, po, 10 mg/kg, mean half-life (t1/2)): 13.7 h
- half-life ([3]; male, cynomolgus, po, 10 mg/kg, t1/2): 13.7 h
- AUC(0-inf) ([3]; male, cynomolgus, po, 30 mg/kg): ~202000 ng·h/mL
- AUC(0-t) ([3]; male, cynomolgus, po, 30 mg/kg): 80800 ng·h/mL
- Tmax ([3]; male, cynomolgus, po, 30 mg/kg): 4 to 6 h
- half-life ([3]; male, cynomolgus, po, 30 mg/kg, mean half-life (t1/2)): 31.1 h
- half-life ([3]; male, cynomolgus, po, 30 mg/kg, t1/2): ~31.1 h
